Read-outs that look alike come from different tables or passages of the source.
Key:
[1] = test system: MEK1 phosphorylation in the A375 human melanoma cell line; experiment: cells; settings: A-375, read-out: pMEK IC50
RAF kinases [2] = biological target: T1, RAF kinases (Homo sapiens, UniProt P15056); experiment: biochemical
[3] = test system: 290 distinct kinases tested excluding mutant variants (321 in the larger panel)
Experimental: Competition binding assays used herein were developed, validated and performed as described in Fabian et al., Nature Biotechnology 2005, 23, 329-336. […] The liganded beads were blocked with excess biotin and washed with blocking buffer (SeaBlock (Pierce), 1% BSA, 0.05% Tween 20, 1 mM DTT) to remove unbound ligand and to reduce non-specific binding. […] Test compounds were prepared as 100× stocks in DMSO and rapidly diluted into the aqueous environment. DMSO was added to control assays lacking a test compound. Primary screen interactions were performed in polypropylene 384-well plates in a final volume of 34 μt, while Kd determinations were performed in polystyrene 96-well plates in a final volume of 135 pt. […] The kinase concentration in the eluates was measured by quantitative PCR. Each kinase was tested individually against each compound. Kds were determined using eleven serial threefold dilutions. A selectivity score, which is a quantitative measure of selectivity of a compound against a panel of enzymes, may be calculated for a compound by dividing the number of enzymes for which a compound meets a set criteria, (for example, a binding constant of 100 nM or less), by the total number of enzymes tested. […] (Note, for those compounds tested in a larger kinase panel, as indicated by an asterisk (*) next to the S35 score, the divisor is 321 (i.e. the larger panel contains 321 distinct kinases, excluding mutant variants.)).

RAF kinases [4] = biological target: T2, RAF kinases (Homo sapiens, UniProt P15056, V600E); settings: read-out: BRAF V600E Kd; BRAF V600E
T2 sequence (P15056 whole entry V600E): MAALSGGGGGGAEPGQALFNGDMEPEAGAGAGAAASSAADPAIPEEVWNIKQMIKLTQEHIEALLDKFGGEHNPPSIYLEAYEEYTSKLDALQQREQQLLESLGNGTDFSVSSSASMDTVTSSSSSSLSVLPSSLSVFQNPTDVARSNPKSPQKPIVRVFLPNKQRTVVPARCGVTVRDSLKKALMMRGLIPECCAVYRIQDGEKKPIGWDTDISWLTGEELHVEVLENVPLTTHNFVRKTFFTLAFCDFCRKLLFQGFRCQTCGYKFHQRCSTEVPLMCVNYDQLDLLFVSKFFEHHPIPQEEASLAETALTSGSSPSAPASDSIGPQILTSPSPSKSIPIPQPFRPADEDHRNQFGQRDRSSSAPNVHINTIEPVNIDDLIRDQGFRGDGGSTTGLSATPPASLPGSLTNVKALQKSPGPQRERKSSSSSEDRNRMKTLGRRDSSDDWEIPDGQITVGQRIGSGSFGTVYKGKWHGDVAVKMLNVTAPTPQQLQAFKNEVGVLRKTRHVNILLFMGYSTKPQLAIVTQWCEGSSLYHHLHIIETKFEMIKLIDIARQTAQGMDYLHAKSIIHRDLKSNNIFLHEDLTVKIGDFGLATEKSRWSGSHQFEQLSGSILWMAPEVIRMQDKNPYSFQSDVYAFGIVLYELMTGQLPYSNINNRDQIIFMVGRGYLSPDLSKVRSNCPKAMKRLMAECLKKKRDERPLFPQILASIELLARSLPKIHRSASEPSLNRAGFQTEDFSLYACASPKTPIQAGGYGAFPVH

RAF kinases [5] = biological target: T3, RAF kinases (Homo sapiens, UniProt P04049); settings: read-out: RAF1 Kd; RAF1
T3 sequence (P04049 whole entry): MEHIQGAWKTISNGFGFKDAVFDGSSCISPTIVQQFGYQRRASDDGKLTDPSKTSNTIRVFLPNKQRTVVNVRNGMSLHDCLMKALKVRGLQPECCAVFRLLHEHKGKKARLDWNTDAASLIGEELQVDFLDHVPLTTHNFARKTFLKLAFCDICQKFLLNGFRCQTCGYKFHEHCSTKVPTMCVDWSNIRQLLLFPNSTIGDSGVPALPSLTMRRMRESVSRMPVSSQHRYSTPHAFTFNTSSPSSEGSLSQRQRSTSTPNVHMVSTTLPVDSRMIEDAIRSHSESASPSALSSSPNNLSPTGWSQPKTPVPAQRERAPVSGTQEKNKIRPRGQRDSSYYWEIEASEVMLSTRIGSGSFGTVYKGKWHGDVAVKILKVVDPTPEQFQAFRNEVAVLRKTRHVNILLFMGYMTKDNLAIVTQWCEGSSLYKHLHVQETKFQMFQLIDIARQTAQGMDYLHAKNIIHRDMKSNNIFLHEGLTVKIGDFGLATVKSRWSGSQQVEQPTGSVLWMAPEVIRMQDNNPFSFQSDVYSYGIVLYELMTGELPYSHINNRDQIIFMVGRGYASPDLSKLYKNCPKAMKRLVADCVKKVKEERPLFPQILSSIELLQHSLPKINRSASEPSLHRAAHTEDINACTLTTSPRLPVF

A375 cells = experiment: cells; settings: Homo sapiens, A-375, read-out: A375 Viability EC50
Experimental: The following day, the medium was replaced with 0.5% FBS in M3 for overnight incubation. […] The cells were incubated with compound or control for 72 hours at 37° C. under 10% CO2. Following incubation, Cell Titer Blue reagent (Promega) was added to each well containing compounds or controls, and then incubated for 3 hours at 37° C. under 10% CO2. Proliferation was measured by fluorescence with excitation at 560 nm and emission at 590 nm using SoftMax Pro.

RAF kinases [6] = biological target: T2, RAF kinases; experiment: biochemical
RAF kinases [7] = biological target: T3, RAF kinases; experiment: biochemical
RAF kinases [8] = biological target: T1, RAF kinases; settings: read-out: BRAF WT Kd; BRAF WT
[9] = no asterisk: panel of 290 distinct kinases

T1 sequence (P15056 whole entry): as the sequence (P15056 whole entry V600E) above, with E600V counted along it

SMILES | IC50 [1] [µM] | Kd (RAF kinases [2]) [µM] | S35 [3, 9] | Kd (RAF kinases [4]) [µM] | Kd (RAF kinases [5]) [µM] | EC50 (A375 cells) [µM] | Kd (RAF kinases [6]) [µM] | Kd (RAF kinases [7]) [µM] | Kd (RAF kinases [8]) [µM] | S35 ([3]; asterisk: panel of 321 distinct kinases)
COc1cc2ncnc(Oc3cccc(NC(=O)Nc4cc(C5CC5)nn4-c4ccccc4)c3)c2cc1OC [Ex 353, 1-(3-cyclopropyl-1-phenyl-1H-pyrazol-5-yl)-3-(3-(6,7-dimethoxyquinazolin-4-yloxy)phenyl)urea] | 0.25 to 0.5 | 0.25 to 0.5 | C (0.20 < C ≦ 0.40) | < 0.25 | < 0.25 | 0.25 to 0.5 | – | – | – | –
COc1cc2ncnc(Oc3cccc(NC(=O)Nc4cc(C(C)(C)C(F)(F)F)nn4-c4ccccc4)c3)c2cc1OC [Ex 306, 1-(3-(6,7-dimethoxyquinazolin-4-yloxy)phenyl)-3-(1-phenyl-3-(1,1,1-trifluoro-2-methylpropan-2-yl)-1H-pyrazol-5-yl)urea] | < 0.25 | > 1 | D (D > 0.40) | – | – | – | 0.25 to 0.5 | > 1 | – | –
CCn1nc(C(C)(C)C)cc1NC(=O)Nc1cccc(Sc2ncnc3cc(OC)c(OC)cc23)c1 [Ex 321, 1-(3-tert-butyl-1-ethyl-1H-pyrazol-5-yl)-3-(3-(6,7-dimethoxyquinazolin-4-ylthio)phenyl)urea] | 0.25 to 0.5 | 0.25 to 0.5 | C (0.20 < C ≦ 0.40) | < 0.25 | < 0.25 | 0.5 to 1 | – | – | – | –
COc1cc2ncnc(Sc3cccc(NC(=O)Nc4cc(C(F)(F)F)nn4-c4cccc(C)c4)c3)c2cc1OC [Ex 339, 1-(3-(6,7-dimethoxyquinazolin-4-ylthio)phenyl)-3-(1-m-tolyl-3-(trifluoromethyl)-1H-pyrazol-5-yl)urea] | < 0.25 | > 1 | C (0.20 < C ≦ 0.40) | – | – | – | 0.25 to 0.5 | 0.5 to 1 | – | –
COc1cc2ncnc(Oc3cccc(NC(=O)Nc4cc(C(C)(F)F)nn4-c4cncc(F)c4)c3)c2cc1OC [Ex 316, 1-(3-(1,1-difluoroethyl)-1-(5-fluoropyridin-3-yl)-1H-pyrazol-5-yl)-3-(3-(6,7-dimethoxyquinazolin-4-yloxy)phenyl)urea] | 0.25 to 0.5 | 0.25 to 0.5 | C (0.20 < C ≦ 0.40) | < 0.25 | < 0.25 | 0.5 to 1 | – | – | – | –
COc1cc2ncnc(Sc3cccc(NC(=O)Nc4cc(C(C)(C)C)nn4-c4ccc(C#N)cc4)c3)c2cc1OC [Ex 329, 1-(3-tert-butyl-1-(4-cyanophenyl)-1H-pyrazol-5-yl)-3-(3-(6,7-dimethoxyquinazolin-4-ylthio)phenyl)urea] | < 0.25 | 0.25 to 0.5 | D (D > 0.40) | – | – | – | 0.25 to 0.5 | 0.5 to 1 | – | –
COc1ccc(-n2nc(C(C)C)cc2NC(=O)Nc2cccc(Sc3ncnc4cc(OC)c(OC)cc34)c2)cc1 [Ex 349, 1-(3-(6,7-dimethoxyquinazolin-4-ylthio)phenyl)-3-(3-isopropyl-1-(4-methoxyphenyl)-1H-pyrazol-5-yl)urea] | < 0.25 | – | C (0.20 < C ≦ 0.40) | < 0.25 | – | < 0.25 | – | 0.5 to 1 | > 1 | –
COc1ccc(-n2nc(C(C)C)cc2NC(=O)Nc2cccc(Oc3ncnc4cc(OC)c(OC)cc34)c2)cc1 [Ex 348, 1-(3-(6,7-dimethoxyquinazolin-4-yloxy)phenyl)-3-(3-isopropyl-1-(4-methoxyphenyl)-1H-pyrazol-5-yl)urea] | < 0.25 | – | D (D > 0.40) | < 0.25 | – | < 0.25 | – | 0.5 to 1 | > 1 | –
COc1cc2c(Sc3cccc(NC(=O)Nc4cc(C(C)(C)C)on4)c3)ncnc2cc1OCCN1CCN(CCO)CC1 [Ex 84, 1-(5-tert-butylisoxazol-3-yl)-3-(3-(7-(2-(4-(2-hydroxyethyl)piperazin-1-yl)ethoxy)-6-methoxyquinazolin-4-ylthio)phenyl)urea] | < 0.25 | 0.25 to 0.5 | D (D > 0.40) | – | – | > 1 | < 0.25 | 0.25 to 0.5 | – | –
COc1cc2ncnc(Oc3cccc(NC(=O)Nc4cc(C(C)(C)CO)no4)c3)c2cc1OC [Ex 255, 1-(3-(6,7-dimethoxyquinazolin-4-yloxy)phenyl)-3-(3-(1-hydroxy-2-methylpropan-2-yl)isoxazol-5-yl)urea] | > 1 | 0.25 to 0.5 | C (0.20 < C ≦ 0.40) | – | – | > 1 | < 0.25 | 0.25 to 0.5 | – | –
COc1cc2ncnc(Sc3cccc(NC(=O)Nc4cc(C(C)C)nn4-c4cccnc4)c3)c2cc1OC [Ex 351, 1-(3-(6,7-dimethoxyquinazolin-4-ylthio)phenyl)-3-(3-isopropyl-1-(pyridin-3-yl)-1H-pyrazol-5-yl)urea] | < 0.25 | 0.5 to 1 | C (0.20 < C ≦ 0.40) | < 0.25 | < 0.25 | 0.25 to 0.5 | – | – | – | –
COc1cc2ncnc(Sc3cccc(NC(=O)Nc4cc(C(F)(F)F)nn4-c4ccc(C)cc4)c3)c2cc1OC [Ex 199, 1-[3-(6,7-dimethoxyquinazolin-4-ylthio)phenyl]-3-[1-p-tolyl-3-(trifluoromethyl)-1H-pyrazol-5-yl]urea] | < 0.25 | > 1 | – | – | – | > 1 | > 1 | > 1 | – | D* (D > 0.40)
COc1ccc(-n2nc(C(C)(F)F)cc2NC(=O)Nc2cccc(Oc3ncnc4cc(OC)c(OC)cc34)c2)cc1 [Ex 315, 1-(3-(1,1-difluoroethyl)-1-(4-methoxyphenyl)-1H-pyrazol-5-yl)-3-(3-(6,7-dimethoxyquinazolin-4-yloxy)phenyl)urea] | < 0.25 | – | D (D > 0.40) | < 0.25 | – | < 0.25 | – | 0.5 to 1 | > 1 | –
COc1cc2ncnc(Oc3cccc(NC(=O)Nc4cc(C(C)(C)C#N)nn4-c4ccccc4)c3)c2cc1OC [Ex 308, 1-(3-(2-cyanopropan-2-yl)-1-phenyl-1H-pyrazol-5-yl)-3-(3-(6,7-dimethoxyquinazolin-4-yloxy)phenyl)urea] | < 0.25 | 0.25 to 0.5 | D (D > 0.40) | < 0.25 | – | 0.25 to 0.5 | – | 0.25 to 0.5 | – | –
COc1cc2ncnc(Oc3cccc(NC(=O)Nc4cc(C(C)(C)C)nn4CC(C)C)c3)c2cc1OC [Ex 332, 1-(3-tert-butyl-1-isobutyl-1H-pyrazol-5-yl)-3-(3-(6,7-dimethoxyquinazolin-4-yloxy)phenyl)urea] | 0.5 to 1 | 0.25 to 0.5 | C (0.20 < C ≦ 0.40) | < 0.25 | – | > 1 | – | 0.25 to 0.5 | – | –
COc1cc2ncnc(Oc3cccc(NC(=O)Nc4cc(C5CCC5)nn4-c4ccccc4)c3)c2cc1OC [Ex 355, 1-(3-cyclobutyl-1-phenyl-1H-pyrazol-5-yl)-3-(3-(6,7-dimethoxyquinazolin-4-yloxy)phenyl)urea] | < 0.25 | 0.5 to 1 | C (0.20 < C ≦ 0.40) | < 0.25 | – | < 0.25 | – | 0.5 to 1 | – | –
COc1cc2ncnc(Sc3cccc(NC(=O)Nc4cc(C(C)(C)C)nn4C(C)C)c3)c2cc1OC [Ex 335, 1-(3-tert-butyl-1-isopropyl-1H-pyrazol-5-yl)-3-(3-(6,7-dimethoxyquinazolin-4-ylthio)phenyl)urea] | 0.25 to 0.5 | 0.25 to 0.5 | C (0.20 < C ≦ 0.40) | < 0.25 | – | > 1 | – | 0.25 to 0.5 | – | –
COc1cc2ncnc(Sc3cccc(NC(=O)Nc4cc(C(C)(C)C)nn4C4CCCCC4)c3)c2cc1OC [Ex 331, 1-(3-tert-butyl-1-cyclohexyl-1H-pyrazol-5-yl)-3-(3-(6,7-dimethoxyquinazolin-4-ylthio)phenyl)urea] | < 0.25 | 0.5 to 1 | B (0.10 < B ≦ 0.20) | – | – | > 1 | 0.25 to 0.5 | 0.5 to 1 | – | –
COc1cc2ncnc(Oc3cccc(NC(=O)Nc4cc(C5(C(F)(F)F)CC5)nn4-c4ccc(C)cc4)c3)c2cc1OC [Ex 346, 1-(3-(6,7-dimethoxyquinazolin-4-yloxy)phenyl)-3-(1-p-tolyl-3-(1-(trifluoromethyl)cyclopropyl)-1H-pyrazol-5-yl)urea] | < 0.25 | > 1 | D (D > 0.40) | – | – | – | < 0.25 | > 1 | – | –
COc1cc2ncnc(Oc3cccc(NC(=O)Nc4cc(C(C)C)nn4-c4ccccc4)c3)c2cc1OC [Ex 324, 1-(3-(6,7-dimethoxyquinazolin-4-yloxy)phenyl)-3-(3-isopropyl-1-phenyl-1H-pyrazol-5-yl)urea] | < 0.25 | 0.25 to 0.5 | D (D > 0.40) | < 0.25 | – | < 0.25 | – | 0.25 to 0.5 | – | –
COc1cc2ncnc(Oc3cccc(NC(=O)Nc4cc(C(C)(C)C)nn4C(C)C)c3)c2cc1OC [Ex 334, 1-(3-tert-butyl-1-isopropyl-1H-pyrazol-5-yl)-3-(3-(6,7-dimethoxyquinazolin-4-yloxy)phenyl)urea] | 0.5 to 1 | 0.25 to 0.5 | C (0.20 < C ≦ 0.40) | < 0.25 | – | 0.5 to 1 | – | 0.25 to 0.5 | – | –
COc1cc2ncnc(Oc3cccc(NC(=O)Nc4cc(C(C)(C)C)nn4-c4cc[nH]c(=O)c4)c3)c2cc1OC [Ex 313, 1-(3-tert-butyl-1-(2-oxo-1,2-dihydropyridin-4-yl)-1H-pyrazol-5-yl)-3-(3-(6,7-dimethoxyquinazolin-4-yloxy)phenyl)urea] | 0.25 to 0.5 | 0.25 to 0.5 | D (D > 0.40) | < 0.25 | – | 0.5 to 1 | – | 0.25 to 0.5 | – | –
